Reference: patent US10471043B2, “Compounds and methods of treating bacterial infections” (ULTUPHARMA AB, priority 2015, dated 2019)
In brackets after ≈: the same amount, converted by molar mass. Read-outs that look alike come from different tables or passages of the source.

How the values were obtained:
E. coli = assay: MIC panel of Gram-negative bacteria (Table 7); type: cell-based; conditions: Escherichia coli
Proteus mirabilis = assay: MIC panel of Gram-negative bacteria (Table 7); type: cell-based
S. pneumoniae = assay: Antimicrobial Susceptibility Test by Broth Microdilution, M07-A9 CLSI; type: cell-based; conditions: Streptococcus pneumoniae
P. aeruginosa = assay: MIC panel of Gram-negative bacteria (Table 7); type: cell-based; conditions: Pseudomonas aeruginosa
in vitro [1] = conditions: human, CC50 (μg/mL)
A. baumanii = assay: MIC panel of Gram-negative bacteria (Table 7); type: cell-based
E. faecium = assay: Antimicrobial Susceptibility Test by Broth Microdilution, M07-A9 CLSI; type: cell-based
[2] = tested on: Staphylococcus aureus strain LMG15975; assay: MIC by broth micro-dilution, AM3/PBS 1:1; type: cell-based
In short: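 Broth microdilution in AM3:PBS 1:1 (selected values checked in cation-adjusted MHB), inoculum 3-5×10^5 cells/ml, 16-20 h at 37 °C. MIC is the lowest concentration giving no visible growth.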

S. typhimurium = assay: MIC panel of Gram-negative bacteria (Table 7); type: cell-based; conditions: Salmonella enterica; EN0466 S. typhimurium G− TH6509
K. pneumoniae = assay: MIC panel of Gram-negative bacteria (Table 7); type: cell-based; conditions: Klebsiella pneumoniae
S. aureus = assay: Antimicrobial Susceptibility Test by Broth Microdilution, M07-A9 CLSI; type: cell-based; conditions: Staphylococcus aureus
Citrobacter sp. = assay: MIC panel of Gram-negative bacteria (Table 7); type: cell-based; conditions: EN0465 Citrobacter sp. G− PKL 3710
S. pyogenes = assay: Antimicrobial Susceptibility Test by Broth Microdilution, M07-A9 CLSI; type: cell-based; conditions: Streptococcus pyogenes
in vitro [3] = conditions: human, Caco-2
[4] = tested on: mupirocin-resistant strains of Staphylococcus aureus; assay: MIC against mupirocin-resistant strains; type: cell-based; conditions: Staphylococcus aureus; S. aureus V55, mupirocin-resistant; read-out: MIC
Protocol: At first (Table 1), MIC is determined by broth micro-dilution method. The test medium is Antibiotic Medium 3 (AM3; Difco Ltd) mixed with Phosphate Buffered Saline (PBS) in proportions 1:1. Selected MIC values are verified using cation-adjusted Mueller Hinton Broth (MHB; BD). Cell concentration of tested pathogen is adjusted to between 3 and 5×10^5 cells per ml. To verify cell concentration of tested pathogen, viable cell counts are performed directly after each MIC-test by dilution method with PBS as a dilution solvent. Cells are counted on the agar plates with 50% strength Vegetable Peptone Broth (50% VPB; Oxoid Ltd) after 16 to 20 h of incubation at 37° C.
Cells of pathogen suspended in test medium are distributed to the wells and the plates are incubated for 16 to 20 h at 37° C. Negative controls are wells with the test medium only and positive controls are wells with the pathogen in test medium. The MIC is defined as the lowest concentration of each compound with no visible growth of pathogen.

K. oxytoca = assay: MIC panel of Gram-negative bacteria (Table 7); type: cell-based; conditions: Klebsiella oxytoca; EN0392 K. oxytoca G−
Serratia marescens = assay: MIC panel of Gram-negative bacteria (Table 7); type: cell-based; conditions: EN0454 Serratia marescens G− PKL 3692
S. epidermidis [5] = assay: MIC panel of Gram-negative bacteria (Table 7); type: cell-based; conditions: Staphylococcus epidermidis; EN0456 S. epidermidis G+ PKL 3694
E. faecalis = assay: Antimicrobial Susceptibility Test by Broth Microdilution, M07-A9 CLSI; type: cell-based; conditions: Enterococcus faecalis
HepG2 cells = conditions: human, 48 h
Enterobacter aerogenes = assay: MIC panel of Gram-negative bacteria (Table 7); type: cell-based; conditions: Klebsiella aerogenes; EN0461 Enterobacter aerogenes G− PKL 3706
S. epidermidis [6] = assay: Antimicrobial Susceptibility Test by Broth Microdilution, M07-A9 CLSI; type: cell-based; conditions: Staphylococcus epidermidis
Micrococcus luteus = assay: MIC panel of Gram-negative bacteria (Table 7); type: cell-based; conditions: EN0455 Micrococcus luteus G+ PKL 3693

CCCCCCCCCC1CC(O)=C(C(=O)CCC)C(=O)O1 (stereo not shown) [Ex. 1, 3-Butyryl-6-nonyl-4-hydroxy-5,6-dihydro-2H-pyran-2-one] gave an MIC (E. coli; EN001 E. coli WT, ENABLE Primary MIC panel) greater than 64 µg/mL, an MIC (E. coli; EN002 E. coli DtolC, ENABLE Primary MIC panel) of 4 µg/mL (≈ 12.9 µM) and an MIC (E. coli; EN003 E. coli D22 (lps mut), ENABLE Primary MIC panel) greater than 64 µg/mL. The MIC (E. coli; EN0012 E. coli, ENABLE L2C MIC panel) was greater than 64 µg/mL, the MIC (E. coli; EN0013 E. coli Del-tolC, ENABLE L2C MIC panel) was 0.5 µg/mL (≈ 1.61 µM) and the MIC (E. coli; EN0458 E. coli B G− PKL 3698) was greater than 64 µg/mL. For the same compound, the MIC (Proteus mirabilis; EN0445 P. mirabilis ST19 G−) was greater than 64 µg/mL, the MIC (Proteus mirabilis; EN0457 Proteus mirabilis G− PKL 3695, read-out: MIC) was greater than 64 µg/mL and the MIC (S. pneumoniae; ATCC49619, S. pneumoniae ATCC 49619, QC strain) was 4 µg/mL (≈ 12.9 µM). The MIC (S. pneumoniae; BAA1407, S. pneumoniae BAA1407, Macrolide-resistant (M + MLS)) was 8 µg/mL, the MIC (S. pneumoniae; S. pneumoniae 19A-TN, Quinolone-sensitive) was 8 µg/mL (≈ 25.8 µM) and the MIC (S. pneumoniae; S. pneumoniae 158bg, Macrolide-resistant (M)) was 4 µg/mL (≈ 12.9 µM). It also gave an MIC (S. pneumoniae; S. pneumoniae 956, Macrolide-resistant (MLSc)) of 4 µg/mL (≈ 12.9 µM), an MIC (S. pneumoniae; S. pneumoniae SP030, Macrolide- sensitive) of 8 µg/mL (≈ 25.8 µM) and an MIC (S. pneumoniae; S. pneumoniae TE 122-024, Quinolone-resistant) of 8 µg/mL (≈ 25.8 µM). For the same compound, the MIC (S. pneumoniae; S. pneumoniae TE 122-026, Tetracycline-resistant) was 4 µg/mL (≈ 12.9 µM), the MIC (P. aeruginosa; EN004 P. aeruginosa WT, ENABLE Primary MIC panel) was greater than 64 µg/mL and the MIC (P. aeruginosa; EN005 P. aeruginosa Efflux mut, ENABLE Primary MIC panel) was 2 µg/mL (≈ 6.44 µM). It also gave an MIC (P. aeruginosa; EN0014 P. aeruginosa, ENABLE L2C MIC panel) greater than 64 µg/mL, an MIC (P. aeruginosa; EN0015 P. aeruginosa Efflux mut, ENABLE L2C MIC panel) greater than 64 µg/mL and an MIC (P. aeruginosa; EN0422 P. aeruginosa G−) greater than 64 µg/mL. It also gave an MIC (P. aeruginosa; EN0459 P. aeruginosa G− PKL 3699) greater than 64 µg/mL, an MIC (P. aeruginosa; EN0460 P. aeruginosa G− PKL 3704) greater than 64 µg/mL and a CC50 at 48 h (in vitro [1]) of 33 µM. The MIC (A. baumanii; Acinetobacter baumannii, EN007 A. baumanii WT, ENABLE Primary MIC panel, read-out: MIC) was greater than 64 µg/mL, the MIC (A. baumanii; EN0016 A. baumanii, ENABLE L2C MIC panel) was greater than 64 µg/mL and the MIC (A. baumanii; EN0017 A. baumanii Efflux mut, ENABLE L2C MIC panel) was greater than 64 µg/mL. The “MIC” value (E. faecium; E. faecium E.coc 7, Vancomycin -resistant, Table 6) was 2 µg/mL (≈ 6.44 µM), the MIC (E. faecium; Enterococcus faecium, E. faecium 7, Vancomycin-resistant, Table 5, read-out: MIC) was 2 µg/mL (≈ 6.44 µM) and the MIC ([2]; LMG15975, S. aureus (G+), Table 2, read-out: MIC (μg/ml) S. aureus) was 0.8 µg/mL. The MIC ([2]; LMG15975, S. aureus LMG 15975 (SLU), Methicillin-resistant, Table 5, read-out: MIC (μg/mL)) was 0.8 µg/mL, the MIC ([2]; LMG15975, S. aureus LMG15975, Table 1, read-out: MIC) was 2.5 µM and the MIC ([2]; LMG15975, S. aureus LMG15975, Table 1, read-out: MIC (μg/ml)) was 0.8 µg/mL. It also gave an MIC ([2]; LMG15975, Table 4, read-out: MIC (μg/ml) S. aureus) of 0.8 µg/mL, an MIC (S. typhimurium) greater than 64 µg/mL and an MIC (K. pneumoniae; EN006 K. pneumoniae WT, ENABLE Primary MIC panel) greater than 64 µg/mL. For the same compound, the MIC (K. pneumoniae; EN0010 K. pneumoniae, ENABLE L2C MIC panel (isogenic efflux pairs)) was greater than 64 µg/mL, the MIC (K. pneumoniae; EN0011 K. pneumoniae Efflux mut, ENABLE L2C MIC panel) was 8 µg/mL (≈ 25.8 µM) and the MIC (S. aureus; ATCC29213, S. aureus ATCC29213, QC strain, Table 5) was 4 µg/mL (≈ 12.9 µM). It also gave an MIC (S. aureus; ATCC29213, S. aureus ATCC 29213, QC strain, Table 6) of 4 µg/mL (≈ 12.9 µM), an MIC (S. aureus; MRSA, S. aureus PICI, Table 6) of 4 µg/mL (≈ 12.9 µM) and an MIC (S. aureus; MSSA, S. aureus MO 17, MSSA, Table 6) of 2 µg/mL (≈ 6.44 µM). For the same compound, the MIC (S. aureus; S. aureus 6 Holland, Macrolide-resistant (M)) was 1 µg/mL (≈ 3.22 µM), the MIC (S. aureus; S. aureus 56 Japan, Macrolide-resistant (MLSi)) was 4 µg/mL (≈ 12.9 µM) and the MIC (S. aureus; S. aureus 853E, Macrolide-sensitive) was 2 µg/mL (≈ 6.44 µM). It also gave an MIC (S. aureus; S. aureus 4216, Tetracycline-resistant) of 2 µg/mL (≈ 6.44 µM), an MIC (S. aureus; S. aureus 4384 (SSI), Methicillin-resistant) of 2 µg/mL (≈ 6.44 µM) and an MIC (S. aureus; S. aureus FR 131, Quinolone-resistant) of 2 µg/mL (≈ 6.44 µM). It also gave an MIC (S. aureus; S. aureus MO17, Methicillin-sensitive, Table 5) of 2 µg/mL (≈ 6.44 µM), an MIC (S. aureus; S. aureus PICI, Methicillin-resistant, Table 5) of 4 µg/mL (≈ 12.9 µM) and an MIC (S. aureus; S. aureus PK2, Macrolide-resistant (MLSc)) of 2 µg/mL (≈ 6.44 µM). For the same compound, the MIC (Citrobacter sp.) was greater than 64 µg/mL, the MIC (S. pyogenes; S. pyogenes 2 Finland, Macrolide-resistant (M)) was 8 µg/mL (≈ 25.8 µM) and the MIC (S. pyogenes; S. pyogenes 29A-TF, Macrolide- sensitive) was 8 µg/mL (≈ 25.8 µM). The MIC (S. pyogenes; S. pyogenes 21 Finland, Macrolide-resistant (MLSc)) was 8 µg/mL (≈ 25.8 µM), the Papp at 120 min, 10 μM (in vitro [3]) was 53 ×10⁻⁶ cm/s and the MIC [4] was no more than 0.1 µg/mL. For the same compound, the MIC (K. oxytoca) was greater than 64 µg/mL, the MIC (Serratia marescens) was greater than 64 µg/mL and the MIC (S. epidermidis [5]) was 1 µg/mL (≈ 3.22 µM). For the same compound, the MIC (E. faecalis; E. faecalis E.cocco 12, Vancomycin -resistant) was 2 µg/mL (≈ 6.44 µM), the MIC (E. faecalis; E. faecalis E.cocco 24, Vancomycin -sensitive, Table 6) was 2 µg/mL (≈ 6.44 µM) and the MIC (E. faecalis; E. faecalis 24, Vancomycin-sensitive, Table 5) was 2 µg/mL (≈ 6.44 µM). It also gave a CC50 (HepG2 cells) of 38 µM, an MIC (Enterobacter aerogenes) greater than 64 µg/mL and an MIC (S. epidermidis [6]; MRSE, S. epidermidis TA12, MRSE, Table 6) of 2 µg/mL (≈ 6.44 µM). The MIC (S. epidermidis [6]; S. epidermidis RO7, MSSE, Table 6) was 1 µg/mL (≈ 3.22 µM), the MIC (S. epidermidis [6]; S. epidermis RO7, Methicillin-sensitive, Table 5) was 1 µg/mL (≈ 3.22 µM) and the MIC (S. epidermidis [6]; S. epidermis TA12, Methicillin-resistant, Table 5) was 2 µg/mL (≈ 6.44 µM). For the same compound, the MIC (Micrococcus luteus) was 0.5 µg/mL (≈ 1.61 µM).
